Molecular target: T1, ATX activity in plasma (Mus musculus, UniProt Q9R1E6)
T1 construct: from tissue; host or cells: plasma of female C57BL/6J mice (bleomycin-induced lung fibrosis model)
Experiment: ATX activity in plasma in the mouse bleomycin-induced lung fibrosis model
Assay type: in vivo, female C57BL/6J mouse
Conditions: 30 mg/kg, bid, oral, 14 days; FIG. 5
Procedure: A compound administration solution prepared by wet pulverization in a mixer mill (type: MM400) for 10 min and adjusting to a given concentration with 0.5% aqueous carboxymethylcellulose solution was orally administered to male Wistar rat (5-week-old when used) at 5 mL/kg. Blood samples were collected from the cervical vein over time at 8 to 24 hr after administration. The blood was heparin-treated using a micro blood collection tube Capiject (CJ-AL, TERUMO CORPORATION), and the plasma was separated by centrifugation (4° C., 12,000 rpm, for 2 min), and preserved at −80° C. […] The measurement of ATX activity in plasma was evaluated using the concentration of choline in the plasma, which was liberated from lysophosphatidylcholine (substrate of ATX) by the lysophospholipase D activity of ATX, as an index. […] The reaction mixture (10 μL) after reaction for 6 hr and 45 μL of reagent R^1 solution (100 mM Tris-HCl pH 8.0, 0.5 mM TOOS, 10 U/mL peroxidase, 0.01% Triton X-100) were added and blended and absorbance at 550-700 nm was measured and used as a prevalue. […] 1 mM choline chloride was diluted with 2× assay buffer up to 7 steps in 2-fold serial dilution, R^1 solution was treated similarly and the absorbance was measured. […]
At 14 days from the bleomycin administration, plasma, BALF and lung tissue were collected. BALF was recovered and the concentration of LPA (18:2) in BALF (FIG. 6) was measured. […]

In the case of `COc1ccc(-c2cnnc(OC[C@H]3CC[C@H](C(F)(F)F)CC3)c2)nc1[C@H]1C[C@@H]1C(=O)O` [Example 5, (1S,2S)-2-[3-methoxy-6-(6-{[trans-4-(trifluoromethyl)cyclohexyl]methoxy}pyridazin-4-yl)pyridin-2-yl]cyclopropanecarboxylic Acid], the “ATX activity in the plasma” value is reported as “suppressed ATX activity in the plasma completely”.
